Key:
GABABR = molecular target: T1, GABABR (Rattus norvegicus, UniProt O88871+Q9Z0U4); experiment: GABABR antagonism by CGP55845 in hippocampal whole-cell recording; type: cell-based; conditions: n = 6, data not shown; read-out: IC50 of GABABR antagonist under our recording conditions
T1 construct: endogenous in cells; host or cells: cultured rat (E18 Sprague-Dawley) hippocampal neurons, 12-17 DIV

[1] = tested on: GABAARs in hippocampal neurons; experiment: slow inward current directly activated by CGP7930 in hippocampal neurons in high K+ external solution and its block by GABAAR antagonists; type: cell-based, rat; conditions: antagonist 100 μM, P < 0.001
Description: (§1) Spontaneous inhibitory postsynaptic currents (sIPSCs) were recorded from cultured hippocampal neurons at 12–17 days in vitro (DIV). […] For recording K^+ currents in GIRK cells and neurons, the bath solution was switched to a high K^+ solution containing 25 mM KCl and reduced NaCl (120 mM), to shift the equilibrium potential for K^+ from approximately −90 to −47 mV, thus reversing the direction of K^+ current flux to net inward. GABABR-activated K^+ currents in cultured neurons were recorded in the additional presence of 2 mM kynurenic acid and 20 μM picrotoxin.
CGP7930 modulation at neuronal GABABRs was also characterised using baclofen-activated GIRK currents in hippocampal cultures similarly bathed in a high external K^+ concentration.

[2] = tested on: GABAAR-mediated tonic inhibition in hippocampal neurons; experiment: tonic inhibition: baseline holding current and RMS noise in cultured hippocampal neurons; type: cell-based, rat; conditions: Control to Bic (50 μM bicuculline)
Description: (§2) Briefly, single cells derived from dissected hippocampi were seeded onto glass coverslips coated with poly-D-lysine in a plating medium containing minimum essential media with 5% v/v heat-inactivated FCS, 5% v/v heat-inactivated horse serum, penicillin-G/streptomycin (100 U/100 μg/ml), 2 mM L-glutamine, and 20 mM glucose. Two hr after plating the media was changed to a Neurobasal-A based maintenance media supplemented with 1% v/v B-27, penicillin-G/streptomycin (100 U/100 μg/ml), 0.5% v/v Glutamax and 35 mM glucose.
as §1
(§3) Borosilicate glass electrodes (3–5 MΩ) were filled with a K^+-based internal solution for recording GIRK currents containing (mM): 120 KCl, 2 MgCl2, 11 EGTA, 30 KOH, 10 HEPES, 1 CaCl2, 1 GTP, 2 ATP, 14 creatine phosphate, pH 7.0. GABAAR currents and sIPSCs were recorded with a Cs-based internal solution containing (mM): 120 CsCl, 1 MgCl2, 11 EGTA, 30 KOH, 10 HEPES, 1 CaCl2, and 2 K2ATP; pH 7.2. […] Cells were held at −60 mV (sIPSCs) or −60/−70 mV (K^+ currents). Voltage clamp recordings were undertaken after optimising series resistance (Rs, <10 MΩ) and compensating for the whole-cell membrane capacitance. Membrane currents were filtered at 5 kHz (−3 dB, 6th pole Bessel, 36 dB/octave) and stored for analysis with Clampex 10.
For tonic inhibition, to determine the average holding currents, a 30 s continuous holding current recording was sampled every 1 s, discarding epochs that coincided with sIPSCs. Any effect of CGP7930 or bicuculline on the holding current was defined by subtracting the average holding currents in control and during drug application. The baseline root-mean-square current variance (RMS) was calculated before and during drug treatment. This was estimated from a continuous (20 s) current recording, sampled every 100 ms. The median current was calculated every 5 s and values more than twice the standard deviation from the median (usually due to IPSCs) were eliminated. All drugs were applied using a U-tube rapid drug application system, or more slowly via bath perfusion.
We assessed the effect of CGP7930 on tonic inhibition in hippocampal cultured neurons.

[3] = tested on: native GABAARs in hippocampal neurons; experiment: muscimol-activated and CGP7930-activated GABAAR currents in hippocampal neurons, Cs+-based internal solution; type: cell-based, rat; conditions: read-out: muscimol EC50; hippocampal neurons, n = 9
Description: as §2, §1, §3
Concentration-response curves were generated by measuring the current (I) for each ligand concentration and normalising to the maximal current response (Imax).

T1 sequence (Q9Z0U4 17-960 limits assumed): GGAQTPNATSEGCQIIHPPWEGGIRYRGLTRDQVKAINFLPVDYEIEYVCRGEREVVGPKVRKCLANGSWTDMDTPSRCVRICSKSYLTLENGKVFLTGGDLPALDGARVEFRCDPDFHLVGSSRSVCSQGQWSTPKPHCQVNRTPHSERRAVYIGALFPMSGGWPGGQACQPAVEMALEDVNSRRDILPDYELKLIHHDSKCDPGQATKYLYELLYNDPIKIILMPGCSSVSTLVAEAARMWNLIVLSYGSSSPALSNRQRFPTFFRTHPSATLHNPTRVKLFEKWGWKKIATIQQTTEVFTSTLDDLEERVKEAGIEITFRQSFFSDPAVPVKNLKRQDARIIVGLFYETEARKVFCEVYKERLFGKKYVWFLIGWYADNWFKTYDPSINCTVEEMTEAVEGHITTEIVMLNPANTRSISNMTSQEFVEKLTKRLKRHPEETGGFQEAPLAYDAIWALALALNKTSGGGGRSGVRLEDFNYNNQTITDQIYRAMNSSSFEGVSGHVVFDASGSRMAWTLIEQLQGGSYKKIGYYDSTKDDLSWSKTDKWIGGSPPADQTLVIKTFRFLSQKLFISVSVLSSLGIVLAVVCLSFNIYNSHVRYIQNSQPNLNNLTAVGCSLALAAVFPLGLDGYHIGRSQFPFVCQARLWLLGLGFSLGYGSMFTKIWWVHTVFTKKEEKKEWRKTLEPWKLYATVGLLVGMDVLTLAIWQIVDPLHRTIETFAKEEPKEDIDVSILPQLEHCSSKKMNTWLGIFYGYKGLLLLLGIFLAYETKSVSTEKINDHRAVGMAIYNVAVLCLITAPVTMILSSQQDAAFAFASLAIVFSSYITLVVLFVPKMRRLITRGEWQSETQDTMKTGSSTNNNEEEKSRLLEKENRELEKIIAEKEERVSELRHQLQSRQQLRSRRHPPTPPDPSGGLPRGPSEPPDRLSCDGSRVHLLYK
T1 sequence (O88871 41-940): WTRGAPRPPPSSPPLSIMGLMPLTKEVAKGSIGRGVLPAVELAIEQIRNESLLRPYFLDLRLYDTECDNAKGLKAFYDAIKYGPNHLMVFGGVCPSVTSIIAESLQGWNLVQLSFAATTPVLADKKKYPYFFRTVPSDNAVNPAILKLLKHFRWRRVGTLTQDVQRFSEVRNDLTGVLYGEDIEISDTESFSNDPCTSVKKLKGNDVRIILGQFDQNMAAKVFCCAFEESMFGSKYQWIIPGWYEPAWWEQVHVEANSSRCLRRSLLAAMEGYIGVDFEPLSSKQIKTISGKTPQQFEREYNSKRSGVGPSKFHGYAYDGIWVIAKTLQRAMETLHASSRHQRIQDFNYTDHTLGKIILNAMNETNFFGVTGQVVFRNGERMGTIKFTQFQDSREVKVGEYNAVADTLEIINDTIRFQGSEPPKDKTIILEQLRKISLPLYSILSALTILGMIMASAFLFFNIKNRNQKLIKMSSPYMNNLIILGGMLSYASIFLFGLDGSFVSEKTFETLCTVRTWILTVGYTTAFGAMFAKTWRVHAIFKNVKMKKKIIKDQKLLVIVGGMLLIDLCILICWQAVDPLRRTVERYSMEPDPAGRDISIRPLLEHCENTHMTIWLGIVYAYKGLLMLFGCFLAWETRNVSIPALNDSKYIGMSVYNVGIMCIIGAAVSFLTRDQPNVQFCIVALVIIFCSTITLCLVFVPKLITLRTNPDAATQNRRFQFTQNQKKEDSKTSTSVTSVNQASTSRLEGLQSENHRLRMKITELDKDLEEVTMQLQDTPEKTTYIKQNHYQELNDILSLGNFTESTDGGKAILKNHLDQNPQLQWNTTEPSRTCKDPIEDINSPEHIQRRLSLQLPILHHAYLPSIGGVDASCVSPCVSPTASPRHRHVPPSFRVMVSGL

C[C@H](NC[C@H](O)CP(=O)(O)Cc1ccccc1)c1ccc(Cl)c(Cl)c1 [CGP55845]
IC50 (GABABR): 10 ± 0.7 nM

CN1CCc2cc3c(cc2[C@H]1[C@@H]1OC(=O)c2c1ccc1c2OCO1)OCO3 [bicuculline]
effect on the slow inward current caused by > 3 μM CGP7930 [1]: abolished
Tonic currents (change in baseline holding current) [2]: 38.02 ± 7.43 (6) pA

NCc1cc(=O)[nH]o1 [muscimol]
EC50 [3]: 2700 ± 100 nM

picrotoxin
effect on the slow inward current caused by > 3 μM CGP7930 [1]: abolished
